In the NIST ThermoML archive (doi:10.1016/j.jct.2019.04.010):

Test: xn = mol fraction of the nth substance listed
Details: 100 kPa, Liquid; for viscosity: Concentric cylinders viscometry; for mass density: Vibrating tube method

CCCCn1cc[n+](C)c1.O=[N+]([O-])[O-] [1-butyl-3-methylimidazolium nitrate] + CC(C)O
Details | mass density, 293.15 K [kg/m3] | mass density, 298.15 K [kg/m3] | mass density, 303.15 K [kg/m3] | viscosity, 293.15 K [mPa·s] | viscosity, 298.15 K [mPa·s] | viscosity, 303.15 K [mPa·s] | viscosity, 308.15 K [mPa·s]
x1 = 0.0815 | 853.9 | 849.9 | 846 | 4.18 | 3.66 | 3.29 | 2.93
x1 = 0.1596 | 906.3 | 902.5 | 898.7 | 6.88 | 5.95 | 5.22 | 4.55
x1 = 0.2405 | 951.1 | 947.4 | 943.8 | 10.99 | 9.26 | 8 | 6.55
x1 = 0.3495 | 1000.3 | 996.7 | 993.2 | 18 | 15.42 | 12.83 | 10.13
x1 = 0.4405 | 1034 | 1030.5 | 1027.2 | 26 | 22 | 17.76 | 14.06
x1 = 0.5607 | 1070.7 | 1067.4 | 1064.2 | 39.8 | 33.04 | 26.4 | 20.79
x1 = 0.6506 | 1093.8 | 1090.6 | 1087.4 | 53.28 | 42.9 | 34.49 | 27.05
x1 = 0.7413 | 1114.1 | 1110.9 | 1107.9 | 69.94 | 55.5 | 45.29 | 36.2
x1 = 0.8515 | 1135 | 1131.9 | 1129 | 105.6 | 81.6 | 63.3 | 50.5
x1 = 0.9396 | 1149.7 | 1146.6 | 1143.6 | 157.7 | 122.4 | 90.3 | 72.4
x1 = 1 | 1158.3 | 1155.2 | 1152.3 | 223.54 | 168.97 | 125.36 | 96.74
